Reference: patent US9034866B2 (Genentech, Inc., priority 2012, dated 2015)
Where “and” joins values, the source holds several entries; their conditions need not be identical. Equal entries are not always repeated.

target: nuclear factor-kappa B (NF-kB)-inducing kinase (NIK) (Homo sapiens (Human), UniProt Q99558); test: NIK Enzyme Inhibition Assay (Transcreener ADP fluorescence polarization); assay type: biochemical; settings: purified NIK 0.2-1 nM, 10 uM ATP, Morrison's quadratic equation; read-out: NIK ADP-FP (Ki uM)
Sequence (Q99558 whole entry): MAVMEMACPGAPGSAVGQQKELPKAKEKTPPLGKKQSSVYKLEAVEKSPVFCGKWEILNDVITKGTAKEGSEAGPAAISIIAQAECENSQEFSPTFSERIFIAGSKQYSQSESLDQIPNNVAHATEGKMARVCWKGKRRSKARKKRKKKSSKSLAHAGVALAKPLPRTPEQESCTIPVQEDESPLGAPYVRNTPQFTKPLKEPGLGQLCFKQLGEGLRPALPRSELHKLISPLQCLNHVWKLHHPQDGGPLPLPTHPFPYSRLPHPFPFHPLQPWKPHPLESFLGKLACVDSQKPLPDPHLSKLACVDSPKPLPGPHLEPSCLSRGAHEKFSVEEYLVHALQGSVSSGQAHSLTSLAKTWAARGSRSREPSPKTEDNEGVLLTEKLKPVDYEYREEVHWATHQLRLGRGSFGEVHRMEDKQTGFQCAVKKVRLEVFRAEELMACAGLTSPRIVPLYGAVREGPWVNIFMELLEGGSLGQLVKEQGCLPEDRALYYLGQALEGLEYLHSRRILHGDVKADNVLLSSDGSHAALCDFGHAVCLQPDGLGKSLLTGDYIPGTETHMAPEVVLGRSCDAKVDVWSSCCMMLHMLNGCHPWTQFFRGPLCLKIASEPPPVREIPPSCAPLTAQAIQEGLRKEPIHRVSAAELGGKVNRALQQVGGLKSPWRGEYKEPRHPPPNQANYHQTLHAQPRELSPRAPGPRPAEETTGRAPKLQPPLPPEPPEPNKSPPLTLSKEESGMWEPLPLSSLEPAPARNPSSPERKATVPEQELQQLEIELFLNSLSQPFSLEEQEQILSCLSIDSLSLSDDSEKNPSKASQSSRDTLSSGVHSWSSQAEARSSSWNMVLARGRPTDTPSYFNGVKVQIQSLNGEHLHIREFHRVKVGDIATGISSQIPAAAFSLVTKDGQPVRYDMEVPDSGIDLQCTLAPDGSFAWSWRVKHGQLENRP
Method: NIK Enzyme Inhibition Assay: The ability of the nuclear factor-kappa B (NF-kB)-inducing kinase (NIK) to catalyze the hydrolysis of adenosine-5′-triphosphate (ATP) was monitored using the Transcreener ADP (adenosine-5′-diphosphate) assay (BellBrook Labs). Purified NIK (0.2-1 nM) derived from a baculovirus-infected insect cell expression system was incubated with test compounds for 1-3.5 hours in 50 mM 2-[4-(2-hydroxyethyl)piperazin-1-yl]ethanesulfonic acid buffer (pH 7.2) containing 10 mM MgCl2, 2 mM dithiothreitol, 10 uM ATP, 0.01% Triton X-100, 0.1% gamma-globulins from bovine blood, 1% dimethylsulfoxide (DMSO), 12 ug/mL ADP antibody and 4 nM ADP-AlexaFluor® 633 tracer. Reactions were quenched by the addition of 20 mM 2,2′,2″,2′″-(ethane-1,2-diyldinitrilo)tetraacetic acid and 0.01% Brij 35. The tracer bound to the antibody was displaced by the ADP generated during the NIK reaction, which causes a decrease in fluorescence polarization that was measured by laser excitation at 633 nm with a Fluorescence Correlation Spectroscopy Plus reader (Evotec AG).

**Q.** How did the Ki turn out when CC(C)(O)C#Cc1ccc2c(c1)-c1nc(C(N)=O)c(CN3CC[C@@H](C#N)C3)n1CCO2 was run?
**A.** 1.8 µM and 1.1 µM

**Q.** With CC(O)(C#Cc1cc2c(cc1F)C1CC(C1)n1cc(C(N)=O)nc1-2)c1ccccn1 (racemic) [Example 160] as the molecule, how does the Ki read?
**A.** 0.0068 µM

**Q.** For CC(C)(O)C#Cc1ccc2c(c1)-c1nc(C(N)=O)sc1C(F)(F)CO2 [Example 27, 4,4-diriuoro-9-(3-hydroxy-3-methyl-but-1-ynyl)-4,5-dihydro-6-oxa-3-thia-1-aza-benzo[c]azulene-2-carboxylic acid amide], which Ki is on record?
**A.** 0.057 µM

**Q.** CN1CCCC(O)(C#Cc2cc3c(cc2F)OCCc2sc(C(N)=O)nc2-3)C1=O (stereo not drawn) was tested. Which Ki did it give?
**A.** 0.002 µM

**Q.** CC(C)(O)C#Cc1ccc2c(c1)-c1nc(C(N)=O)sc1C(NC1CCC1)CO2 (stereo not drawn) [Example 22, 4-cyclobutylamino-9-(3-hydroxy-3-meth-yl-but-1-ynyl)-4,5-dihydro-6-oxa-3-thia-1-aza-benzo[e]azulene-2-carboxylic acid amide] was tested. Which Ki did it give?
**A.** 0.97 µM

**Q.** Which Ki does the source give for NC(=O)c1cn2c(n1)-c1cc(C#CC3(O)CC4CCC(C3)N4)ccc1OCC2 (stereo not drawn) [Example 31, 9-(3-hydroxy-8-aza-bicyclo[3.2.1]oct-3-ylethynyl)-4,5-dihydro-6-oxa-1,3a-diaza-benzo[e]azulene-2-carboxylic acid amide] here?
**A.** > 5 µM

**Q.** CC(C)(O)C#Cc1cc2c(cc1F)OCCn1c-2nc(C(N)=O)c1C(=O)NC1CCOC1 (stereo not drawn) was tested. Which Ki did it give?
**A.** 0.037 µM

**Q.** With CC(O)(C#Cc1ccc2c(c1)-c1nc(C(N)=O)cn1C1CC2C1)c1nc[nH]n1 (stereo not drawn) as the molecule, how does the Ki read?
**A.** 0.018 µM

**Q.** For Cn1cc([C@H](O)c2c(C(N)=O)nc3n2CCOc2cc(F)c(C#CC(C)(C)O)cc2-3)cn1, which Ki is on record?
**A.** 0.033 µM

**Q.** How did the Ki turn out when Cc1nc(C(C)(O)C#Cc2cc3c(cc2F)OCCn2cc(C(N)=O)nc2-3)c[nH]1 (racemic) was run?
**A.** 2.5 µM

**Q.** NC(=O)c1cc2n(n1)-c1cc(C#CC3(O)CCCC3O)ccc1OCC2 (stereo not drawn) [Example 695] was tested. Which Ki did it give?
**A.** 1.8 µM and 1.1 µM

**Q.** For CC(C)(O)C#Cc1ccc2c(c1)-c1nc(C(N)=O)c(Cn3ncc4cccnc43)n1CCO2, which Ki is on record?
**A.** 0.2 µM

**Q.** NC(=O)c1cn2c(n1)-c1cc(C#CC3(O)CCCC3)ccc1C1CC2C1 [Example 37, 9-[2-(1-hydroxycyclopentyl)ethynyl]-2,5-diazatetra-cyclo[11.1.1.0^2,6.0^7,12]pen-tadeca-3,5,7,9,11-pentaene-4-carboxamide] was tested. Which Ki did it give?
**A.** 0.003 µM

**Q.** CC(C)(O)C#Cc1cc2c(cc1F)C1CC(C1)c1sc(C(N)=O)cc1-2 (racemic) was tested. Which Ki did it give?
**A.** 0.11 µM

**Q.** With Cn1cncc1C(O)c1c(C(N)=O)nc2n1C1CC(C1)c1cc(F)c(C#CC(C)(C)O)cc1-2 (stereo not drawn) as the molecule, how does the Ki read?
**A.** 0.011 µM

**Q.** Which Ki does the source give for CC(C)(O)C#Cc1cc2c(cc1F)OCCn1c-2nc(C(N)=O)c1C(=O)NCCN1CCCC1 (racemic) [Example 67] here?
**A.** 0.048 µM

**Q.** With CC(C)(O)C#Cc1ccc2c(c1)-c1nc(C(N)=O)c(C(F)(F)F)n1CCO2 (racemic) [Example 198] as the molecule, how does the Ki read?
**A.** 0.54 µM

**Q.** Cc1nc(C(C)(O)C#Cc2cc3c(cc2F)OCCn2cc(C(N)=O)nc2-3)n[nH]1 (stereo not drawn) was tested. Which Ki did it give?
**A.** 3.9 µM

**Q.** With Cc1cccnc1C(C)(O)C#Cc1cc2c(cc1F)OCCn1cc(C(N)=O)nc1-2 (racemic) [Example 62] as the molecule, how does the Ki read?
**A.** > 5 µM

**Q.** NC(=O)c1cn2c(n1)-c1cc(C#CC3(O)CCc4cccnc43)ccc1OCC2 (racemic) was tested. Which Ki did it give?
**A.** 0.0051 µM

**Q.** How did the Ki turn out when CC(O)(C#Cc1cc2c(cc1F)OCCn1cc(C(N)=O)nc1-2)C(F)(F)F (stereo not drawn) [Example 56, 8-fluoro-9-(4,4,4-trifluoro-3-hydroxy-3-methyl-but-1-ynyl)-4,5-dihydro-6-oxa-1,3a-diaza-benzo[e]azulene-2-carboxylic acid amide] was run?
**A.** 2 µM

**Q.** How did the Ki turn out when CC(C)(O)C#Cc1ccc2c(c1)-c1nc(C(N)=O)c(-c3cc[nH]n3)n1CCO2 [Example 110] was run?
**A.** 0.023 µM

**Q.** How did the Ki turn out when CC(C)(O)C#Cc1ccc2c(c1)-c1nc(C(N)=O)sc1C(=O)CO2 [Example 9, 9-(3-hydroxy-3-methyl-but-1-ynyl)-4-oxo-4,5-dihydro-6-oxa-3-thia-1-aza-benzo-[e]azulene-2-carboxylic acid amide] was run?
**A.** 0.216 µM

**Q.** Which Ki does the source give for COCC(C)(O)C#Cc1cc2c(cc1F)OCCn1cc(C(N)=O)nc1-2 (stereo not drawn) here?
**A.** 0.068 µM

**Q.** How did the Ki turn out when CC(O)(C#Cc1cc2c(cc1F)OCCn1cc(C(N)=O)nc1-2)c1nc(CC#N)cs1 (racemic) [Example 77] was run?
**A.** 1.2 µM

**Q.** For CNC(=O)c1c(C(N)=O)nc2n1CCOc1cc(F)c(C#CC(C)(O)CO)cc1-2 (racemic), which Ki is on record?
**A.** 0.002 µM

**Q.** For CNC(=O)c1c(C(N)=O)nc2n1CCOc1ccc(C#C[C@](C)(O)c3ccccn3)cc1-2, which Ki is on record?
**A.** > 5 µM

**Q.** How did the Ki turn out when CC(O)(C#Cc1cc2c(cc1F)OCCn1cc(C(N)=O)nc1-2)c1ncccn1 (stereo not drawn) [Example 16, 8-fluoro-9-(3-hydroxy-3-pyrimidin-2-yl-but-1-ynyl)-4,5-dihydro-6-oxa-1,3a-diaza-benzo[e]azulene-2-carboxylic acid amide] was run?
**A.** 0.025 µM

**Q.** CC(O)(C#Cc1cc2c(cc1F)OCCn1cc(C(N)=O)nc1-2)C(N)=O (stereo not drawn) [Example 52, 9-(3-carbamoyl-3-hydroxy-but-1-ynyl)-8-fluoro-4,5-dihydro-6-oxa-1,3a-diaza-benzo[e]azulene-2-carboxylic acid amide] was tested. Which Ki did it give?
**A.** 3.6 µM

**Q.** For NC(=O)c1cc2n(n1)-c1cc(C#CC3(O)CCCC3)ccc1OCC21COC1 [Example 715, 9-((1-hydroxycyclopentyl)ethynyl)-5H-spiro[benzo[b]pyrazolo[1,5-d][1,4]oxa-zepine-4,3′-oxetane]-2-carboxamide], which Ki is on record?
**A.** 0.1 µM

**Q.** CN1CCCC(NC(=O)c2c(C(N)=O)nc3n2CCOc2cc(F)c(C#CC(C)(C)O)cc2-3)C1 (stereo not drawn) [Example 78] was tested. Which Ki did it give?
**A.** 0.06 µM

**Q.** Cc1cc([C@](C)(O)C#Cc2ccc3c(c2)-c2nc(C(N)=O)c(C(=O)NC4CCOCC4)n2CCO3)no1 [Example 712, (R)-10-(3-hydroxy-3-(5-methylisoxazol-3-yl)but-1-yn-1-yl)-N3-(tetrahydro-2H-pyran-4-yl)-5,6-dihydrobenzo[f]imidazo[1,2-d][1,4]oxazepine-2,3-dicarboxamide] was tested. Which Ki did it give?
**A.** 1 µM

**Q.** Which Ki does the source give for CC(O)(C#Cc1cc2c(cc1F)OCCn1cc(C(N)=O)nc1-2)C(=O)N1CC(C#N)C1 (stereo not drawn) [Example 95] here?
**A.** 0.304 µM

**Q.** Which Ki does the source give for CN1CC[C@@](O)(C#Cc2ccc3c(c2)-c2nc(C(N)=O)sc2C2CC3C2)C1=O [Example 609, (R)-9-((3-hydroxy-1-methyl-2-oxopyrro-lidin-3-yl)ethynyl)-5,6-dihydro-4H-4,6-methanobenzo[6,7]cyclohepta[1,2-d]thiazole-2-carboxamide] here?
**A.** 0.00094 µM

**Q.** CC(C)N(C)Cc1c(C(N)=O)nc2n1C1CC(C1)c1cc(F)c(C#CC(C)(C)O)cc1-2 [Example 223] was tested. Which Ki did it give?
**A.** 0.16 µM

**Q.** With CC(O)(C#Cc1cc2c(cc1F)OCCn1cc(C(N)=O)nc1-2)c1ccc(Cl)cn1 (stereo not drawn) [Example 102, 9-[3-(5-chloro-pyridin-2-yl)-3-hydroxy-but-1-ynyl]-8-fluoro-4,5-dihydro-6-oxa-1,3a-diaza-benzo[e]azulene-2-carboxy-lic acid amide] as the molecule, how does the Ki read?
**A.** > 5 µM

**Q.** With CC(=O)N1CCN(Cc2c(C(N)=O)nc3n2CCOc2ccc(C#CC(C)(C)O)cc2-3)CC1 as the molecule, how does the Ki read?
**A.** 0.21 µM

**Q.** With CN1CCC(O)(C#Cc2ccc3c(c2)-c2nc(C(N)=O)cn2CCO3)C1 (stereo not drawn) [Example 23, 9-(3-hydroxy-1-methyl-pyrrolidin-3-yl-ethynyl)-4,5-dihydro-6-oxa-1,3a-diaza-benzo[e]azulene-2-carboxylic acid amide] as the molecule, how does the Ki read?
**A.** > 5 µM

**Q.** CN1CC[C@](O)(C#Cc2ccc3c(c2)-c2nc(C(N)=O)cn2C2CC3C2)C1=O was tested. Which Ki did it give?
**A.** > 1.2 µM

**Q.** For CN1CC[C@@](O)(C#Cc2ccc3c(c2)-n2nc(C(N)=O)c(Cl)c2C(F)(F)CO3)C1=O [Example 719, (R)-3-chloro-4,4-difluoro-9-((3-hydroxy-1-methyl-2-oxopyrrolidin-3-yl)ethynyl)-4,5-dihydrobenzo[b]pyrazolo[1,5-d][1,4]oxazepine-2-carboxamide], which Ki is on record?
**A.** 0.0004 µM

**Q.** Which Ki does the source give for CC(C)(O)C#Cc1cc2c(cc1F)OCCn1c-2nc(C(N)=O)c1C(=O)NC(C)(C)C#N (racemic) [Example 61] here?
**A.** 0.105 µM

**Q.** For CC(C)(O)C#Cc1cc2c(cc1F)OCCn1c-2nc(C(N)=O)c1C(=O)NC1CN2CCC1CC2 (racemic), which Ki is on record?
**A.** 0.453 µM

**Q.** CC(O)(C#Cc1cc2c(cc1F)OCCn1cc(C(N)=O)nc1-2)c1cnccn1 (stereo not drawn) [Example 15, 8-fluoro-9-(3-hydroxy-3-pyrazin-2-yl-but-1-ynyl)-4,5-dihydro-6-oxa-1,3a-diaza-benzo[e]azulene-2-carboxylic acid amide] was tested. Which Ki did it give?
**A.** 0.036 µM

**Q.** CC(C)(O)C#Cc1cc2c(cc1F)OCCn1c-2nc(C(N)=O)c1-c1nc(C2CC2)no1 (racemic) [Example 188] was tested. Which Ki did it give?
**A.** 0.19 µM

**Q.** COCCN(C)Cc1c(C(N)=O)nc2n1C1CC(C1)c1cc(F)c(C#CC(C)(C)O)cc1-2 (racemic) [Example 239] was tested. Which Ki did it give?
**A.** 0.23 µM

**Q.** Which Ki does the source give for Cc1cc([C@](C)(O)C#Cc2ccc3c(c2)-c2nc(C(N)=O)c(C(=O)NCc4cccc(F)c4)n2CCO3)no1 [Example 713, (R)-N3-(3-fluorobenzyl)-10-(3-hydroxy-3-(5-methylisoxazol-3-yl)but-1-yn-1-yl)-5,6-dihydrobenzo[f]imidazo[1,2-d][1,4]oxazepine-2,3-dicarboxamide] here?
**A.** > 1.2 µM

same assay, conditions: read-out: NIK ADP-FP (Ki uM)

**Q.** With Cc1cc([C@](C)(O)C#Cc2ccc3c(c2)-n2nc(C(N)=O)cc2C(F)(F)CO3)no1 [Example 674, (R)-4,4-difluoro-9-(3-hydroxy-3-(5-methylisoxazol-3-yl)but-1-yn-1-yl)-4,5-dihydrobenzo[b]pyrazolo[1,5-d][1,4]oxazepine-2-carboxamide] as the molecule, how does the Ki read?
**A.** 0.0011 µM

**Q.** Which Ki does the source give for CNC(=O)c1c(C(N)=O)nn2c1CCOc1ccc(C#C[C@@](C)(O)c3cc(C)on3)cc1-2 [Example 548] here?
**A.** 0.0014 µM
